For experiment [1] the following is noted: in vivo; cited from earlier work.
The conditions of experiment [2]: humans; cited from earlier work.
A short description of experiment [3]: 6-month regimen of sub-antibacterial doxycycline: cholesterol fractions in plasma of acute coronary syndrome patients with elevated baseline cholesterol. It is filed as in vivo, human. The protocol:
After six months, the cholesterol fractions were then measured (Table 1). Table 1: The Effect of a 6-Month Regimen of Sub-Antibacterial Doxycycline on Cholesterol Values in Plasma of Acute Coromary Syndrome Patients with Elevated Baseline Cholesterol

With `CN(C)[C@@H]1C(O)=C(C(N)=O)C(=O)[C@@]2(O)C(O)=C3C(=O)c4c(O)cccc4[C@@](C)(O)[C@H]3C[C@@H]12` [tetracycline], the “Effect on serum cholesterol levels” value in experiment [1] was “reduce serum cholesterol levels”. The “Effect on serum cholesterol” value in experiment [2] is “no effect”.
For the compound `C[C@H]1c2cccc(O)c2C(=O)C2=C(O)[C@]3(O)C(=O)C(C(N)=O)=C(O)[C@@H](N(C)C)[C@@H]3[C@@H](O)[C@@H]21` [doxycycline], in experiment [3] (6 months vs baseline, doxycycline 20 mg twice a day), the “Change Due to Treatment, HDL/Cholesterol (Increase)” value is 19%. Moreover, the “Change Due to Treatment, LDL-Cholesterol (Reduction)” value in experiment [3] (6 months vs baseline, doxycycline 20 mg twice a day, p=0.033) is listed as 31%. Also, the “Total Cholesterol, 6 Month Level” value in experiment [3] (plasma, doxycycline 20 mg twice a day for six months, 3 patients on statins, baseline 231 ± 20) worked out at 190 ± 20 mg %. For the same compound, in experiment [3] (plasma, doxycycline 20 mg twice a day for six months, baseline 48 ± 17), the “HDL-Cholesterol, 6 Month Level” value was found to be 48 ± 18 mg %. The “LDL-Cholesterol, 6 Month Level” value in experiment [3] (plasma, doxycycline 20 mg twice a day for six months, baseline 155 ± 9) was determined as 107 ± 12 mg %. In experiment [3] (ratio of HDL-cholesterol to total cholesterol, doxycycline 20 mg twice a day for six months, baseline 0.21), the “HDL/Cholesterol, 6 Month Level” value came out at 0.25.
